The values below come from ChEMBL document CHEMBL5356993, “Novel pyrazolo[3,4-d]pyrimidine derivatives: design, synthesis, anticancer evaluation, VEGFR-2 inhibition, and antiangiogenic activity” (RSC Med Chem, 2023).

Assay [1] concerns MDA-MB-468. Kind of assay: Induction of cell cycle arrest in human MDA-MB-468 cells assessed as decrease in cell population at G2/M phase at IC50 incubated for 24 hrs by RNase/PI staining based flow cytometry relative to control. Also noted: scale not given: the % may be the effect or the level left. It counts as functional. (Flow cytometry measures light scatter and fluorescence of single cells or particles in a stream.)

Assay [2] concerns MDA-MB-468. Put plainly: Induction of apoptosis in human MDA-MB-468 cells assessed as early apoptotic cells at IC50 incubated for 24 hrs by Annexin V/PI staining based flow cytometry (reference value: 0.52 %). It counts as functional.
The test system of assay [3] is MDA-MB-468. Put plainly: Induction of cell cycle arrest in human MDA-MB-468 cells assessed as fold increase in cell population at S phase at IC50 incubated for 24 hrs by RNase/PI staining based flow cytometry relative to control. It counts as functional.
For assay [4], the system named is MDA-MB-468. Kind of assay: Induction of apoptosis in human MDA-MB-468 cells assessed as increase in caspase-3 level incubated for 2 hrs by ELISA (reference value: 2.109 ng/ml). It counts as functional. (In an ELISA, binding on a coated surface is turned into a signal by an enzyme label.)
Assay [5] relates to MDA-MB-468. Kind of assay: Induction of apoptosis in human MDA-MB-468 cells assessed as necrotic cells at IC50 incubated for 24 hrs by Annexin V/PI staining based flow cytometry (reference value: 1.59 %). It counts as functional.
The subject of the next assay is HUVEC. Kind of assay: Antiangiogenic activity against HUVEC cells assessed as wound closure at IC50 incubated for 72 hrs by wound healing assay (reference value: 98.518 %). It counts as functional, Homo sapiens.
Assay [6] concerns MDA-MB-468. Put plainly: Induction of apoptosis in human MDA-MB-468 cells assessed as fold increase in caspase-3 level incubated for 2 hrs by ELISA relative to control. It counts as functional.
For assay [7], the system named is MDA-MB-468. Kind of assay: Induction of cell cycle arrest in human MDA-MB-468 cells assessed as decrease in cell population at G0 to G1 phase at IC50 incubated for 24 hrs by RNase/PI staining based flow cytometry relative to control. It counts as functional. Also noted: scale not given: the % may be the effect or the level left.
The subject of assay [8] is MDA-MB-468. Put plainly: Induction of apoptosis in human MDA-MB-468 cells assessed as late apoptotic cells at IC50 incubated for 24 hrs by Annexin V/PI staining based flow cytometry (reference value: 0.17 %). It counts as functional.
For assay [9], the system named is MDA-MB-468. Kind of assay: Induction of apoptosis in human MDA-MB-468 cells assessed as total apoptotic cells at IC50 incubated for 24 hrs by Annexin V/PI staining based flow cytometry (reference value: 2.28 %). It counts as functional.
For assay [10], the system named is MDA-MB-468. Kind of assay: Induction of cell cycle arrest in human MDA-MB-468 cells assessed as accumulation of cells at S phase at IC50 incubated for 24 hrs by RNase/PI staining based flow cytometry (reference value: 24.85 %). It counts as functional.
Assay [11] relates to MDA-MB-468. Kind of assay: Induction of apoptosis in human MDA-MB-468 cells assessed as fold increase in total apoptotic cells at IC50 incubated for 24 hrs by Annexin V/PI staining based flow cytometry relative to control. It counts as functional.

Structures are written as SMILES.

In the case of `Cc1nc2c(cnn2-c2ccccc2)c(=O)n1-c1ccc(NC(=O)c2ccc(F)cc2)cc1`, the Activity with MDA-MB-468 [1] was determined as 43.46%; in the assay on MDA-MB-468 [2], 15.85%; in the assay on MDA-MB-468 [4], 15.44 ng/mL; in the assay with MDA-MB-468 [5], 4.94%; in the assay on HUVEC, 75.555%; in the assay with MDA-MB-468 [7], 10.43%. The Activity in the assay on MDA-MB-468 [8] is given as 22.49%; in the assay with MDA-MB-468 [9] it was 43.28%; in the assay with MDA-MB-468 [10], 38.02%. In addition, the “fold change (FC)” value came to 1.53 in the assay with MDA-MB-468 [3], 7.32 with MDA-MB-468 [6] and 18.98 in the assay on MDA-MB-468 [11].
